{"source": "patent US20220143041A1", "about": "“COMBINED THERAPY FOR NMDAR ANTAGONIST-RESPONSIVE NEUROPSYCHIATRIC DISORDERS” (Glytech LLC, priority 2017, published 2022)", "key": {"mice [1]": {"test_system": "mice", "test": "Marble burying test", "assay_type": "in vivo", "conditions": "for Marble burying effect relative to racemic mirtazapine: 1-10 mg/kg IP", "from_the_text": "Distance traveled during the test was captured by cameras and quantified using Video Tracker Software (ViewPoint Life Sciences Software, France). At the end of the test mice were removed from the cages and the number of unburied marbles was counted. A marble was considered buried if it was covered at least two thirds with bedding. An effect was considered significant if p<0.05.\nfrom the cages and the number of unburied marbles was counted. A marble was considered buried if it was covered at least two thirds with bedding.\nThe following compounds were used. […] This compound was dissolved in 20% cyclodextrin and administered IP 30 min prior to test at a dose volume of 10 ml/kg. • Combination DSC (300 mg/kg)+Mirtazapine ([…]) was administered IP as a cocktail in a single injection 30 minutes prior to test at a dose volume of 10 ml/kg.\nMirtazapine is a racemic mix of separate R(−) and S(+) isomers. A follow-up study evaluated the relative effects of the two isomers independently. Methods are the same as for Example 3."}, "Male BalbC/J mice": {"test_system": "Male BalbC/J mice", "test": "Forced swim test (FST), immobility time", "assay_type": "in vivo", "conditions": "for Immobility time in the rodent forced swim test, Mean: 6-min test, IP 30 min prior, DCS 300 mg/kg, mirtazapine or isomer 5 mg/kg, alone or combined; for FST additional beneficial effects in combination with DCS / FST effect of combined antidepressant and DCS vs either agent alone / DCS alone: agent (dose) + DCS 300 mg/kg IP, FIG. 2; for Effect on immobility in the forced swim test vs control: DCS alone"}, "rodent": {"test_system": "rodent", "conditions": "Freynhagen et al.; cited from earlier work"}, "[2]": {"test": "Pharmacokinetics of D-cycloserine in rodents (plasma level, UPLC/MS/MS)", "assay_type": "in vivo", "conditions": "mice", "method": "For this study, male C57BL/6J mice (8 weeks old) from Jackson Laboratories (Bar Harbor, Me.) were used.\nFor each treatment group a total of 12 mice were dosed: 4 mice were collected at 30, 60 and 120 min. Mean plasma level was computed over the 30-60 min time period."}, "NMDAR": {"biological_target": "T1, NMDAR (Homo sapiens, UniProt Q05586)", "T1 construct": "from tissue; host or cells: endogenous receptors of the treated subject (brain), in vivo", "conditions": "in vivo; cited from earlier work"}, "[3]": {"test_system": "symptoms of major depression", "conditions": "250 mg/day; cited from earlier work"}, "mice [4]": {"test_system": "mice", "conditions": "mice (Carlsson et al.); cited from earlier work"}, "[5]": {"conditions": "cited from earlier work"}, "[6]": {"test": "Pharmacokinetics of D-cycloserine in humans (literature)"}, "Male C57BL/6J mice": {"test_system": "Male C57BL/6J mice", "test": "Open field test, locomotor activity", "conditions": "vs vehicle"}, "[7]": {"conditions": "FIG. 3, IP 30 min prior, paroxetine 5, mirtazapine 5.5, D-cycloserine 30 and 300 mg/kg, combination 300 + 5.5 mg/kg"}, "[8]": {"conditions": "FIG. 4, IP, paroxetine 5, mirtazapine and S-mirtazapine 1, 2.5, 5, 10, R-mirtazapine 10 mg/kg"}, "[9]": {"conditions": "humans, 250 mg PO every 12 hrs (Park et al.)"}, "[10]": {"conditions": "humans, 500 mg, fasting (Zhu et al.)"}, "[11]": {"conditions": "patients, mean dose 8.8 mg/kg, mostly 500 mg/day (Hung et al.)"}, "[12]": {"conditions": "500 mg, corresponding to AUC over 24 hr (Zhu et al.)"}}, "note": "Entries after “also recorded” stand apart in the source; their conditions may differ.", "data": [{"compound": "CN1CCN2c3ncccc3Cc3ccccc3C2C1", "note": "(racemic) [mirtazapine]", "values": [{"measurement": "Number of marbles buried compared to vehicle", "setting": "mice [1]; [7]", "value": "significantly reduced"}, {"measurement": "Number of marbles buried compared to vehicle", "setting": "mice [1]; [8]", "value": "significantly reduced"}, {"measurement": "Immobility time in the rodent forced swim test, Mean", "setting": "Male BalbC/J mice", "value": 92.30, "unit": "s"}, {"measurement": "FST additional beneficial effects in combination with DCS", "setting": "Male BalbC/J mice", "value": "addition beneficial effects"}, {"measurement": "Effect in a rodent nociception assay", "setting": "rodent", "value": "biphasic effects"}]}, {"compound": "N[C@@H]1CON=C1O", "note": "[DCS, 3-Isoxazolidinone, 4-amino-, (4R)-(9CI)]", "values": [{"measurement": "Number of marbles buried compared to vehicle", "setting": "mice [1]; [7]", "value": "did not affect"}, {"measurement": "Immobility time in the rodent forced swim test, Mean", "setting": "Male BalbC/J mice", "value": 42.08, "unit": "s"}, {"measurement": "Effect on immobility in the forced swim test vs control", "setting": "Male BalbC/J mice; 30 mg/kg (FIG. 1, PO)", "value": "no significant effect"}, {"measurement": "Effect on immobility in the forced swim test vs control", "setting": "Male BalbC/J mice; doses of 100 mg/kg or above (FIG. 1, PO)", "value": "statistically significant (p<0.001) reduction"}, {"measurement": "Mean plasma levels over 30-60 min", "setting": "[2]; D-cycloserine 30 mg/kg IP", "value": "below 25 microgram/mL"}, {"measurement": "Mean plasma levels over 30-60 min", "setting": "[2]; D-cycloserine 30 mg/kg IP, listed as D-cycloserine", "value": 24.89, "unit": "microgram/mL"}, {"measurement": "Mean plasma levels over 30-60 min", "setting": "[2]; D-cycloserine 100 mg/kg IP", "value": 74.92, "unit": "microgram/mL"}, {"measurement": "Mean plasma levels over 30-60 min", "setting": "[2]; D-cycloserine 500 mg/kg IP", "value": 375.44, "unit": "microgram/mL"}, {"measurement": "Mean plasma levels over 30-60 min", "setting": "[2]; D-cycloserine 1000 mg/kg IP", "value": 510.73, "unit": "microgram/mL"}, {"measurement": "MTD", "setting": "[2]; male, C57BL/6J, mouse, in vivo, IP, read-out: Maximum tolerated dose", "value": "500 to 1000", "unit": "mg/kg"}, {"measurement": "Maximum tolerated blood level", "setting": "[2]; suggested from maximum tolerated dose", "value": "approximately 500 ug/mL"}, {"measurement": "Plasma concentrations associated with antagonist effects", "setting": "NMDAR", "value": "> 25", "unit": "µg/mL"}, {"measurement": "Plasma concentrations associated with primarily agonist effects", "setting": "NMDAR", "value": "< 10", "unit": "µg/mL"}, {"measurement": "Plasma levels with increased liability for toxicity", "setting": "NMDAR", "value": "> 35000", "unit": "ng/mL"}, {"measurement": "Effect on symptoms of major depression", "setting": "[3]", "value": "without significant effect"}, {"measurement": "Effect on locomotor stimulation by a low dose of MK-801", "setting": "mice [4]", "value": "potentiated"}, {"measurement": "Mean AUC over 12 hrs", "setting": "[5]; [9]", "value": 242.3, "unit": "µg·h/mL"}, {"measurement": "Mean Cmax", "setting": "[5]; [9]", "value": 24.9, "unit": "microgram/mL"}, {"measurement": "AUC over 24 hr, range", "setting": "[5]; [10]", "value": "163-352 microgram-hr/mL"}, {"measurement": "Cmax, range", "setting": "[5]; [10]", "value": "12.1-30.6 microgram/mL"}, {"measurement": "Median AUC over 24 hr", "setting": "[5]; [10]", "value": 214, "unit": "microgram-hr/mL"}, {"measurement": "Median Cmax", "setting": "[5]; [10]", "value": 14.8, "unit": "microgram/mL"}, {"measurement": "Sustained plasma level following 500 mg administration", "setting": "[5]; humans, summary of PK studies", "value": "below 25 microgram/mL"}, {"measurement": "DCS concentration at 2 hr after dosing", "setting": "[5]; [11]", "value": 19.7, "unit": "microgram/mL"}, {"measurement": "DCS concentration at 6 hr after dosing", "setting": "[5]; [11]", "value": 18.1, "unit": "microgram/mL"}, {"measurement": "Mean plasma level", "setting": "[6]; 250 mg PO every 12 hrs, corresponding to AUC over 12 hrs (Park et al.)", "value": 20.2, "unit": "microgram/mL"}, {"measurement": "Median sustained plasma level", "setting": "[6]; [12]", "value": 8.9, "unit": "microgram/mL"}, {"measurement": "Sustained plasma level, range", "setting": "[6]; [12]", "value": "6.8-14.7 microgram/mL"}, {"measurement": "Mean distance travelled over 30 min (locomotor activity)", "setting": "Male C57BL/6J mice; DCS 30 mg/kg IP", "value": 4432.1}, {"measurement": "Mean distance travelled over 30 min (locomotor activity)", "setting": "Male C57BL/6J mice; DCS 30 mg/kg IP, listed as D-cycloserine", "value": "not significantly affected"}, {"measurement": "Mean distance travelled over 30 min (locomotor activity)", "setting": "Male C57BL/6J mice; DCS 300 mg/kg IP", "value": 7588.5}, {"measurement": "Mean distance travelled over 30 min (locomotor activity)", "setting": "Male C57BL/6J mice; DCS 300 mg/kg IP, listed as D-cycloserine", "value": "significantly increased"}, {"measurement": "Mean distance travelled over 30 min (locomotor activity)", "setting": "Male C57BL/6J mice; DCS 1000 mg/kg IP", "value": 9049.8}, {"measurement": "Mean distance travelled over 30 min (locomotor activity)", "setting": "Male C57BL/6J mice; DCS 1000 mg/kg IP, listed as D-cycloserine", "value": "significantly increased"}]}, {"compound": "Fc1ccc([C@@H]2CCNC[C@H]2COc2ccc3c(c2)OCO3)cc1", "note": "[Paroxetine]", "values": [{"measurement": "Number of marbles buried compared to vehicle", "setting": "mice [1]; [7]", "value": "significantly reduced"}, {"measurement": "Number of marbles buried compared to vehicle", "setting": "mice [1]; [8]", "value": "significantly reduced"}]}, {"compound": "CN1CCN2c3ncccc3Cc3ccccc3[C@@H]2C1", "note": "[R-mirtazapine, R(−)mirtazapine]", "values": [{"measurement": "Marble burying effect relative to racemic mirtazapine", "setting": "mice [1]; FIG. 4", "value": "less robust"}, {"measurement": "Number of marbles buried compared to vehicle", "setting": "mice [1]; [8]", "value": "significantly reduced"}, {"measurement": "Number of marbles buried compared to vehicle", "setting": "mice [1]; FIG. 4, R-mirtazapine 1, 2.5 and 5 mg/kg IP", "value": "did not affect"}, {"measurement": "Relative effects of R- and S-isomers of mirtazapine on marble burying (FIG. 4 legend)", "setting": "mice [1]; FIG. 4 legend", "value": "greater effects of R- vs S-isomer"}, {"measurement": "FST reduction in immobility, R- vs racemic mirtazapine", "setting": "Male BalbC/J mice; 5 mg/kg, in absence and presence of DCS, not statistically different", "value": "numerically greater"}, {"measurement": "Immobility time in the rodent forced swim test, Mean", "setting": "Male BalbC/J mice", "value": 68.40, "unit": "s"}, {"measurement": "Effect in a rodent nociception assay", "setting": "rodent", "value": "only anti-nociceptive effects"}]}, {"compound": "CN1CCN2c3ncccc3Cc3ccccc3[C@H]2C1", "note": "[S-mirtazapine, S(+)mirtazapine]", "values": [{"measurement": "Marble burying effect relative to racemic mirtazapine", "setting": "mice [1]; FIG. 4", "value": "significantly more robust"}, {"measurement": "Number of marbles buried compared to vehicle", "setting": "mice [1]; [8]", "value": "significantly reduced"}, {"measurement": "Number of marbles buried, combination with DSC 300 mg/kg vs agent 2.5 mg/kg alone", "setting": "mice [1]; IP 30 min prior", "value": "floor level effects"}, {"measurement": "Immobility time in the rodent forced swim test, Mean", "setting": "Male BalbC/J mice", "value": 117.60, "unit": "s"}, {"measurement": "Effect in a rodent nociception assay", "setting": "rodent", "value": "pro-nociceptive effects"}]}, {"compound": "CC(NC(C)(C)C)C(=O)c1cccc(Cl)c1", "note": "(centres unmarked) [bupropion]", "values": [{"measurement": "FST additional beneficial effects in combination with DCS", "setting": "Male BalbC/J mice", "value": "addition beneficial effects"}, {"measurement": "FST effect of combined antidepressant and DCS vs either agent alone / DCS alone", "setting": "Male BalbC/J mice", "value": "significantly larger than with either agent alone; also recorded: effects greater than DCS alone"}]}, {"compound": "CNCC[C@H](Oc1cccc2ccccc12)c1cccs1", "note": "[duloxetine]", "values": [{"measurement": "FST additional beneficial effects in combination with DCS", "setting": "Male BalbC/J mice", "value": "addition beneficial effects"}, {"measurement": "FST effect of combined antidepressant and DCS vs either agent alone / DCS alone", "setting": "Male BalbC/J mice", "value": "significantly larger than with either agent alone; also recorded: effects greater than DCS alone"}]}, {"compound": "CNCCC(Oc1ccc(C(F)(F)F)cc1)c1ccccc1", "note": "(centres unmarked) [fluoxetine]", "values": [{"measurement": "FST additional beneficial effects in combination with DCS", "setting": "Male BalbC/J mice", "value": "addition beneficial effects"}]}, {"compound": "CN[C@H]1CC[C@@H](c2ccc(Cl)c(Cl)c2)c2ccccc21", "note": "[sertraline]", "values": [{"measurement": "FST additional beneficial effects in combination with DCS", "setting": "Male BalbC/J mice", "value": "addition beneficial effects"}, {"measurement": "FST effect of combined antidepressant and DCS vs either agent alone / DCS alone", "setting": "Male BalbC/J mice", "value": "significantly larger than with either agent alone; also recorded: effects greater than DCS alone"}]}, {"compound": "COc1ccc(C(CN(C)C)C2(O)CCCCC2)cc1", "note": "(centres unmarked) [venlafaxine]", "values": [{"measurement": "FST additional beneficial effects in combination with DCS", "setting": "Male BalbC/J mice", "value": "addition beneficial effects"}]}, {"compound": "Cc1ccc(Sc2ccccc2N2CCNCC2)c(C)c1", "note": "[vortioxetine]", "values": [{"measurement": "FST additional beneficial effects in combination with DCS", "setting": "Male BalbC/J mice", "value": "addition beneficial effects"}]}]}
